According to US7166299B2, “Preparation of aqueous clear solution dosage forms with bile acids” (priority 1998, dated 2007):
Where “and” joins values, the source holds several entries; their conditions need not be identical. Equal values may be shown once.

Assay: Solution stability test (HPLC) of UDCA, branched chained amino acids and maltodextrin solution, Example IV
Assay type: physicochemical
Protocol: The stability tests were conducted on three different aqueous solution systems: […]. A bile acid and a high molecular weight aqueous soluble starch conversion product were combined in aqueous solution according to Example I, with results as shown in Tables 1A and 1B. • 2. Mixed bile acids and high molecular weight aqueous soluble starch conversion products were combined in aqueous solution according to Example II, with results as shown in Table 2. • 3. Bile acids, high molecular weight aqueous soluble starch conversion products and branched chained amino acids (e.g. leucine, isoleucine, valine, or other amino acid with a branched side chain) were combined in aqueous solution according to Example IV, with results as shown in Tables 3A through 3F. The stability tests were performed with HPLC and microscope light at various pH conditions under the normal and accelerated conditions. Accelerated conditions for testing pharmaceutical compositions have been described (Remington, The Science and Practice of Pharmacy, 19th ed., p. 640). […] Thus, the formulations of the examples are suitable for preparing a commercial liquid dosage form. […] Some formulations remain stable for over 2 years. Moreover, the solution stability tests were conducted on the aqueous solution dosage forms comprising the mixture of aqueous soluble UDCA, branched chained amino acid (leucine, isoleucine, valine) and maltodextrin according to example IV as a typical example of the solution dosage forms in which bile acid as a therapeutically active agent, as an adjuvant or carrier, pharmaceutically active agent, or enhancer of solubility, and high molecular weight aqueous soluble starch conversion products or soluble non-starch polysaccharides are dissolved. According to the test results, there is no discoloration, no clarity changes, and no precipitation. […] In the tables, the concentration of the indicated bile acid salt for each of the three numbered trials and the average thereof is reported on each line. The percentage indicates the relative concentration of the bile acid salt after incubation for a certain amount of time in comparison with the initial concentration. 85 mL of the aqueous solution in which soluble UDCA is dissolved was prepared, and then maltodextrin was added into the clear solution. Into the resulting clear solution, branched amino acids were added with adjusting the pH (4–7) with agitation and then sweetener, preservatives, and flavoring agent were added. Purified water was added to adjust the total volume to be 100 mL. Tables 3A to 3F show stability test results over time of formulation prepared with amino acids according to Example IV. All stability tests were conducted at 50° C. Stability test results at pH 1 (Table 3A), pH 3 (Table 3B), pH 5 (Table 3C), pH 7 (Table 3D), pH 9 (Table 3E), and pH 10 (Table 3F) are shown.

For `CC(C)[C@H](N)C(=O)O` [Val, valine], the “Percentage of day 0 concentration” value (Table 3A: pH1, 50° C., day 0) was 100.0%, the “concentration by HPLC, Average” value (Table 3A: pH1, 50° C., day 0) was 0.471 and the “concentration by HPLC, trials #1-#3” value (Table 3A: pH1, 50° C., day 0) was 0.506 and 0.448 and 0.460. The “Percentage of day 0 concentration” value (Table 3A: pH1, 50° C., day 1) was 96.7%, the “concentration by HPLC, Average” value (Table 3A: pH1, 50° C., day 1) was 0.456 and the “concentration by HPLC, trials #1-#3” value (Table 3A: pH1, 50° C., day 1) was 0.438 and 0.458 and 0.471. For the same molecule, the “Percentage of day 0 concentration” value (Table 3A: pH1, 50° C., day 2) was 104.5%, the “concentration by HPLC, Average” value (Table 3A: pH1, 50° C., day 2) was 0.492 and the “concentration by HPLC, trials #1-#3” value (Table 3A: pH1, 50° C., day 2) was 0.479 and 0.485 and 0.513. For the same molecule, the “Percentage of day 0 concentration” value (Table 3A: pH1, 50° C., day 6) was 112.4%, the “concentration by HPLC, Average” value (Table 3A: pH1, 50° C., day 6) was 0.530 and the “concentration by HPLC, trials #1-#3” value (Table 3A: pH1, 50° C., day 6) was 0.505 and 0.536 and 0.549. The “Percentage of day 0 concentration” value (Table 3A: pH1, 50° C., day 7) was 102.9%, the “concentration by HPLC, Average” value (Table 3A: pH1, 50° C., day 7) was 0.485 and the “concentration by HPLC, trials #1-#3” value (Table 3A: pH1, 50° C., day 7) was 0.494 and 0.465 and 0.496. The “Percentage of day 0 concentration” value (Table 3A: pH1, 50° C., day 8) was 101.7%, the “concentration by HPLC, Average” value (Table 3A: pH1, 50° C., day 8) was 0.479 and the “concentration by HPLC, trials #1-#3” value (Table 3A: pH1, 50° C., day 8) was 0.488 and 0.491 and 0.459. The “Percentage of day 0 concentration” value (Table 3A: pH1, 50° C., day 9) was 103.6%, the “concentration by HPLC, Average” value (Table 3A: pH1, 50° C., day 9) was 0.488 and the “concentration by HPLC, trials #1-#3” value (Table 3A: pH1, 50° C., day 9) was 0.479 and 0.496 and 0.490. For the same molecule, the “Percentage of day 0 concentration” value (Table 3B: pH 3, 50° C., day 0) was 100.0%, the “concentration by HPLC, Average” value (Table 3B: pH 3, 50° C., day 0) was 0.491 and the “concentration by HPLC, trials #1-#3” value (Table 3B: pH 3, 50° C., day 0) was 0.485 and 0.491 and 0.498. The “Percentage of day 0 concentration” value (Table 3B: pH 3, 50° C., day 1) was 94.6%, the “concentration by HPLC, Average” value (Table 3B: pH 3, 50° C., day 1) was 0.465 and the “concentration by HPLC, trials #1-#3” value (Table 3B: pH 3, 50° C., day 1) was 0.467 and 0.481 and 0.446. For the same molecule, the “Percentage of day 0 concentration” value (Table 3B: pH 3, 50° C., day 2) was 103.8%, the “concentration by HPLC, Average” value (Table 3B: pH 3, 50° C., day 2) was 0.510 and the “concentration by HPLC, trials #1-#3” value (Table 3B: pH 3, 50° C., day 2) was 0.510 and 0.493 and 0.527. The “Percentage of day 0 concentration” value (Table 3B: pH 3, 50° C., day 6) was 106.6%, the “concentration by HPLC, Average” value (Table 3B: pH 3, 50° C., day 6) was 0.524 and the “concentration by HPLC, trials #1-#3” value (Table 3B: pH 3, 50° C., day 6) was 0.527 and 0.491 and 0.553. For the same molecule, the “Percentage of day 0 concentration” value (Table 3B: pH 3, 50° C., day 7) was 97.3%, the “concentration by HPLC, Average” value (Table 3B: pH 3, 50° C., day 7) was 0.478 and the “concentration by HPLC, trials #1-#3” value (Table 3B: pH 3, 50° C., day 7) was 0.485 and 0.481 and 0.468. For the same molecule, the “Percentage of day 0 concentration” value (Table 3B: pH 3, 50° C., day 8) was 103.5%, the “concentration by HPLC, Average” value (Table 3B: pH 3, 50° C., day 8) was 0.508 and the “concentration by HPLC, trials #1-#3” value (Table 3B: pH 3, 50° C., day 8) was 0.490 and 0.491 and 0.544. The “Percentage of day 0 concentration” value (Table 3B: pH 3, 50° C., day 13) was 104.1%, the “concentration by HPLC, Average” value (Table 3B: pH 3, 50° C., day 13) was 0.511 and the “concentration by HPLC, trials #1-#3” value (Table 3B: pH 3, 50° C., day 13) was 0.519 and 0.498 and 0.517. For the same molecule, the “Percentage of day 0 concentration” value (Table 3C: pH 5, 50° C., day 0) was 100.0%, the “concentration by HPLC, Average” value (Table 3C: pH 5, 50° C., day 0) was 0.487 and the “concentration by HPLC, trials #1-#3” value (Table 3C: pH 5, 50° C., day 0) was 0.483 and 0.498 and 0.481. For the same molecule, the “Percentage of day 0 concentration” value (Table 3C: pH 5, 50° C., day 3) was 103.4%, the “concentration by HPLC, Average” value (Table 3C: pH 5, 50° C., day 3) was 0.504 and the “concentration by HPLC, trials #1-#3” value (Table 3C: pH 5, 50° C., day 3) was 0.492 and 0.494 and 0.526. For the same molecule, the “Percentage of day 0 concentration” value (Table 3C: pH 5, 50° C., day 6) was 96.8%, the “concentration by HPLC, Average” value (Table 3C: pH 5, 50° C., day 6) was 0.472 and the “concentration by HPLC, trials #1-#3” value (Table 3C: pH 5, 50° C., day 6) was 0.459 and 0.475 and 0.481. For the same molecule, the “Percentage of day 0 concentration” value (Table 3C: pH 5, 50° C., day 10) was 96.9%, the “concentration by HPLC, Average” value (Table 3C: pH 5, 50° C., day 10) was 0.472 and the “concentration by HPLC, trials #1-#3” value (Table 3C: pH 5, 50° C., day 10) was 0.500 and 0.436 and 0.480. The “Percentage of day 0 concentration” value (Table 3C: pH 5, 50° C., day 13) was 95.0% and the “concentration by HPLC, Average” value (Table 3C: pH 5, 50° C., day 13) was 0.463.
